Assay results as given in patent US10710964B2, “Organic electrolyte compounds for redox-flow batteries” (FUNDACIÓN CENTRO DE INVESTIGACIÓN COOPERATIVA DE ENERGÍAS …, priority 2015, dated 2020).
Converted amounts (≈) assume the structure as drawn.

How the values were obtained:
Type in all cases: physicochemical
[1] = Experimental density of the electrolyte solutions
From the text: Considering the two electron-proton process taking place in the present redox molecules, for a constant amount of grams of salt the optimization of the final concentration will be a balance between the molecular weight and the packing density of the organic compounds in the electrolyte solution. Highest concentration values and subsequently of chemical-electrical energy density stored in the present systems would be achieved as higher the packing density and lower the molecular weight of the molecule. The experimental density of the present solutions containing the redox neutral salts were measured. Densities of 1.04 g/ml, 1.00 g/ml and 0.95 g/ml were measured for solutions 1.23 M of Alizarine SH in H2O, 1.17 M of Alizarine SH in H2O and 1.46 M of Alizarine SH in 0.1 M HClO4 respectively.

[2] = Solubility studies (maximum concentration in aqueous media); settings: for solubility: 0.1 M HClO4, room temperature; for solubility (concentration values): medium not given
Experimental: These were conducted in glass vials of 25 ml volume in which the organic electrolyte compound mass ranging between 15-30 mg approximately was dissolved in DI-H2O and also in the different supporting electrolytes. The procedure was performed in the following steps: after the addition of the solid, a small volume (usually starting from 25 μl) was added by using a micropipette, the suspension was vigorously shaken by hand until complete homogenization of the media in the whole vial (bottom part and walls) was observed. After that, the vials are left standing overnight. The day after, possible precipitation at the bottom of the vial was evaluated. If some solid appeared, the addition of more volume of solvent and/or supporting electrolyte was continued until the solid disappeared completely. […] The final concentration value was only calculated for those samples showing a stable solution after several weeks.

[3] = Cyclic voltammetry in cavity micro-electrode, three-electrode cell; settings: for shift of redox potential on sulphonation, lower oxidation state / shift of redox potential on sulphonation, upper oxidation state: 0.1 M HClO4, sulphonated form in comparison to the parent molecule
Experimental: Attenuated Total Reflectance-Fourier Transform InfraRed (ATR-FTIR) spectra were recorded on Vertex 70 spectrometer (Bruker) in the range of wavelength of 4000-400 cm^−1. Differential Scanning Calorimetry measurements (DSC) were carried out on a TA Instruments Q2000 model in a sealed Al pan at a heating rate of 5° C. min^−1 in the temperature range between −80° C. and 100° C. The cyclic voltammetry measurements were performed in a cavity micro-electrode (CME) with an electrochemical interface area around a fraction of mm^2 and ohmic drop coming from the bulk of the electrolyte that can be neglected, allowing the use of high scan rates [C. Cachet-Vivier et al.; Electrochim. Acta 47, 181-189 (2001)]. The samples were studied electrochemically by using a three-electrode configuration cell in DI-H2O and the different supporting electrolytes with a platinum wire as counter electrode and Ag/AgCl or Hg/HgO as reference electrode depending of the acidic or basic pH of the media respectively.
The microcavity was filled with a homogenous mixture of active material (50 wt %) and carbon super C-65 (50 wt %) by applying pressure against an agate mortar. The cavity was cleaned by immersing the electrode in ethanol in an ultrasonic bath between experiments. For the CME, scan rates approximately an order of magnitude larger could be used without distortion usually seen in conventional cells [R. Lin et al., J. Electrochem. Soc. 1, A7-A12 (2009)]. All the experiments using CME were made three times for the same sample to check reliability. […] Cyclic voltammetry experiments were done from 10 mV/s to 1 V/s using a multichannel potentiostat/galvanostat (VMP3, Biologic). In order to make a direct comparison between the different samples, all current values were normalized to current values measured in the pure capacitive behavior region.

[4] = aqueous BR buffer at pH=7, room temperature
[5] = pure/neat DI-H2O, room temperature
[6] = vs. Ag/AgCl ref. electrode, BR buffer pH=7

O=C1c2ccccc2C(=O)c2c1cc(S(=O)(=O)O)c(O)c2O [Alizarin S. Red-H^+]
density of solution ([1]; 1.17 M solution in H2O): 1.00 g/mL | density of solution ([1]; 1.23 M solution in H2O): 1.04 g/mL | density of solution ([1]; 1.46 M solution in 0.1 M HClO4): 0.95 g/mL | solubility [2]: ~1500 mM (≈ 480 mg/mL) | solubility (concentration values) [2]: 1600 mM (≈ 512 mg/mL)

O=C1c2ccccc2C(=O)c2c1cc(S(=O)(=O)[O-])c(O)c2O.OC[P+](CO)(CO)CO [Alizarin S. Red-TKMP]
solubility [2]: ~1500 mM | solubility (concentration values) [2]: 1600 mM

O=C1/C(=C2\Nc3ccc(S(=O)(=O)O)cc3C2=O)Nc2ccc(S(=O)(=O)O)cc21 [Indigo Carmine-H^+]
separation of the pair of reversible reduction peaks ([3]; BR buffer pH=3): ~0.75 V | peak separation of the two redox peaks ([3]; BR buffer pH=7): ~1 V | separation of both peaks ([3]; BR buffer pH=9, stabilized at cycle 10): ~0.8 V | anodic shift in DI-H2O relative to BR buffer pH=7 ([3]; DI-H2O, pH ~6): ~170 mV | peak separation of the two redox peaks ([3]; neat DI-H2O): ~1 V | solubility (highest concentration) [2, 4]: ~400 mM (≈ 169 mg/mL) | solubility (highest concentration) [2, 5]: ~600 mM (≈ 253 mg/mL)

O=C1C(=C2Nc3ccc(S(=O)(=O)[O-])cc3C2=O)Nc2ccc(S(=O)(=O)[O-])cc21.[Na+].[Na+] [Indigo Carmine-Na^+, 3,3′-dioxo-2,2′-bis-indolyden-5,5′-disulfonic acid disodium salt]
anodic shift of both pairs of peaks relative to Indigo ([3]; BR buffer pH=7): approximately 80 mV

O=C1/C(=C2\Nc3ccc(S(=O)(=O)[O-])cc3C2=O)Nc2ccc(S(=O)(=O)[O-])cc21.OCC[N+](CCO)(CCO)CCO.OCC[N+](CCO)(CCO)CCO [Indigo Carmine-TKEN]
peak separation of the two redox peaks ([3]; BR buffer pH=7): 1 V | solubility (highest concentration) [2, 4]: up to 0.76 M | solubility (concentration values) [2]: up to 0.76 M | solubility (highest concentration) [2, 5]: up to 0.76 M

O=C1C(=C2Nc3ccc(S(=O)(=O)[O-])cc3C2=O)Nc2ccc(S(=O)(=O)[O-])cc21.OC[P+](CO)(CO)CO.OC[P+](CO)(CO)CO [Indigo Carmine-TKMP]
peak separation of the two redox peaks ([3]; BR buffer pH=7): 1 V

O=C1/C(=C2\Nc3ccccc3C2=O)Nc2ccccc21 [Indigo, 2,2′-Bis(2,3-dihydro-3-oxoindolylidene), reference compound]
reduction peak at negative potential [3, 6]: −0.44 V | reduction peak at positive potential [3, 6]: 0.31 V

O=C1c2ccccc2C(=O)c2c1ccc(O)c2O [alizarin, 1,2-dihydroxy-9,10-anthraquinone, reference compound]
shift of redox potential on sulphonation, lower oxidation state [3]: ~50 mV | shift of redox potential on sulphonation, upper oxidation state [3]: ~35 mV

O=C1c2ccccc2C(=O)c2c(O)ccc(O)c21 [quinizarin, 1,4-dihydroxy-9,10-anthraquinone, reference compound]
shift of redox potential on sulphonation, lower oxidation state [3]: ~100 mV | shift of redox potential on sulphonation, upper oxidation state [3]: ~15 mV
